Data from US9302999B2, “Substituted triazoles as herbicides” (E. I. DU PONT DE NEMOURS AND COMPANY, priority 2012, dated 2016).

Key:
Assay type in all cases: in vivo
[1] = system: pigweed (Amaranthus retroflexus); assay: Test A pre-/postemergence: pigweed; details: for Pigweed plant response rating: visual rating on 0 to 100 scale (0 no effect, 100 complete control), approximately ten days
Procedure, shortened: (§1)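 Seeds were sown in loam/sand blend and sprayed preemergence (directed soil spray) and, simultaneously, postemergence at 2–10 cm, one- to two-leaf stage, using compounds in non-phytotoxic solvent with surfactant. After ~10 days in greenhouse, injury was rated visually versus untreated controls, 0 (no effect) to 100 (complete control).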

[2] = system: wheat (Triticum aestivum); assay: Test A pre-/postemergence: wheat; details: for Wheat plant response rating: visual rating on 0 to 100 scale (0 no effect, 100 complete control), approximately ten days
Procedure, shortened: as §1

[3] = system: barnyardgrass (Echinochloa crus-galli); assay: Test B flooded paddy: barnyardgrass; details: Flood; 250 g ai/ha; applied to paddy water at 2-leaf stage; visually evaluated after 13 to 15 days
Procedure, shortened: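 Flooded-pot test: compound dosed into 3 cm of standing water above soil when plants had two leaves. Visual control ratings (0–100) versus untreated plants after 13–15 d.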

[4] = system: ryegrass, Italian (Italian ryegrass, Lolium multiflorum); assay: Test C pre-/postemergence: ryegrass, Italian
Procedure, shortened: (§2)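 Preemergence on seeds in loam/sand, postemergence on 2–18 cm (1–4-leaf) plants in peat-based medium; compounds in non-phytotoxic solvent with surfactant. After 13–15 days in greenhouse, visual rating versus controls, 0 (no effect) to 100 (complete control).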

[5] = system: galium (catchweed bedstraw, Galium aparine); assay: Test C pre-/postemergence: galium
Procedure, shortened: as §2

[6] = system: corn (Zea mays); assay: Test C pre-/postemergence: corn
Procedure, shortened: as §2

[7] = system: large crabgrass (Digitaria sanguinalis); assay: Test C pre-/postemergence: large crabgrass
Procedure, shortened: as §2

[8] = system: foxtail, giant (giant foxtail, Setaria faberii); assay: Test C pre-/postemergence: foxtail, giant
Procedure, shortened: as §2

[9] = system: lambsquarters (Chenopodium album); assay: Test C pre-/postemergence: lambsquarters
Procedure, shortened: as §2

[10] = system: morningglory (Ipomoea coccinea); assay: Test C pre-/postemergence: morningglory
Procedure, shortened: as §2

[11] = Postemergence, 125 g ai/ha, 0 to 100 scale, 0 is no effect, 100 is complete control
[12] = Preemergence, 125 g ai/ha, 0 to 100 scale where 0 is no effect and 100 is complete control
[13] = Preemergence, 500 g ai/ha, 0 to 100 scale (0 no effect, 100 complete control)
[14] = Postemergence, 31 g ai/ha, scale 0 to 100 (0 no effect, 100 complete control)
[15] = Postemergence, 62 g ai/ha, scale 0 to 100 (0 no effect, 100 complete control)
[16] = Postemergence, 125 g ai/ha, scale 0 to 100, 0 no effect, 100 complete control
[17] = Postemergence, 250 g ai/ha, scale 0 to 100
[18] = Preemergence, 31 g ai/ha, scale of 0 to 100, 0 is no effect, 100 is complete control
[19] = Preemergence, 62 g ai/ha, scale of 0 to 100, 0 is no effect, 100 is complete control
[20] = Preemergence, 125 g ai/ha, scale 0 to 100, 0 no effect, 100 complete control
[21] = Preemergence, 250 g ai/ha, scale 0 to 100, 0 no effect, 100 complete control

COc1nn(-c2ccc(C(F)(F)F)cc2)nc1Cc1ccnc(C(F)F)c1 [Compound 138]
85: Plant response rating, Galium [5, 14]
50: Plant response rating, Wheat [2, 11] | Plant response rating, Crabgrass, Large [7, 15]
75: Plant response rating, Ryegrass, Italian [4, 17]
15: Plant response rating, Morningglory [10, 18]
98: Plant response rating, Crabgrass, Large [7, 18] | Plant response rating, Foxtail, Giant [8, 18] | Plant response rating, Lambsquarters [9, 19] | Plant response rating, Lambsquarters [9, 20] | Plant response rating, Lambsquarters [9, 21] | Plant response rating, Morningglory [10, 16] | Plant response rating, Morningglory [10, 17] | Plant response rating, Morningglory [10, 21]
45: Plant response rating, Crabgrass, Large [7, 14]
40: Plant response rating, Ryegrass, Italian [4, 14] | Plant response rating, Ryegrass, Italian [4, 19] | Plant response rating, Corn [6, 20]
90: Plant response rating, Ryegrass, Italian [4, 21] | Plant response rating, Galium [5, 15] | Plant response rating, Galium [5, 17] | Plant response rating, Morningglory [10, 14] | Plant response rating, Morningglory [10, 15]
80: Plant response rating, Barnyardgrass (0 to 100 scale, 0 is no effect, 100 is complete control) [3]
95: Plant response rating, Galium [5, 18] | Plant response rating, Crabgrass, Large [7, 17] | Plant response rating, Foxtail, Giant [8, 17] | Plant response rating, Lambsquarters [9, 18]
30: Plant response rating, Wheat [2, 12] | Plant response rating, Corn [6, 19]
20: Plant response rating, Corn [6, 18] | Plant response rating, Foxtail, Giant [8, 14]
100: Plant response rating, Pigweed [1, 11] | Pigweed plant response rating ([1]; Postemergence, 500 g ai/ha) | Plant response rating, Pigweed [1, 12] | Plant response rating, Pigweed [1, 13] | Plant response rating, Galium [5, 19] | Plant response rating, Galium [5, 20] | Plant response rating, Galium [5, 21] | Plant response rating, Crabgrass, Large [7, 19] | Plant response rating, Crabgrass, Large [7, 20] | Plant response rating, Crabgrass, Large [7, 21] | Plant response rating, Foxtail, Giant [8, 19] | Plant response rating, Foxtail, Giant [8, 20] | Plant response rating, Foxtail, Giant [8, 21] | Plant response rating, Lambsquarters [9, 14] | Plant response rating, Lambsquarters [9, 15] | Plant response rating, Lambsquarters [9, 16] | Plant response rating, Lambsquarters [9, 17]
60: Wheat plant response rating ([2]; Postemergence, 500 g ai/ha) | Plant response rating, Wheat [2, 13] | Plant response rating, Ryegrass, Italian [4, 16]
10: Plant response rating, Ryegrass, Italian [4, 18]
65: Plant response rating, Morningglory [10, 20]
55: Plant response rating, Ryegrass, Italian [4, 15] | Plant response rating, Corn [6, 21] | Plant response rating, Crabgrass, Large [7, 16] | Plant response rating, Foxtail, Giant [8, 15] | Plant response rating, Foxtail, Giant [8, 16] | Plant response rating, Morningglory [10, 19]
70: Plant response rating, Ryegrass, Italian [4, 20]

COc1nn(-c2cccc(F)c2)nc1Cc1ccnc(C(F)(F)F)c1 [Compound 139]
30: Plant response rating, Wheat [2, 11] | Plant response rating, Ryegrass, Italian [4, 15] | Plant response rating, Ryegrass, Italian [4, 16] | Plant response rating, Corn [6, 21] | Plant response rating, Foxtail, Giant [8, 15]
55: Plant response rating, Corn [6, 16] | Plant response rating, Crabgrass, Large [7, 16] | Plant response rating, Morningglory [10, 14] | Plant response rating, Morningglory [10, 21]
90: Plant response rating, Ryegrass, Italian [4, 21] | Plant response rating, Lambsquarters [9, 14] | Plant response rating, Lambsquarters [9, 21]
95: Plant response rating, Galium [5, 21] | Plant response rating, Foxtail, Giant [8, 18] | Plant response rating, Lambsquarters [9, 15] | Plant response rating, Lambsquarters [9, 16]
100: Plant response rating, Pigweed [1, 11] | Pigweed plant response rating ([1]; Postemergence, 500 g ai/ha) | Plant response rating, Pigweed [1, 12] | Plant response rating, Pigweed [1, 13] | Plant response rating, Crabgrass, Large [7, 18] | Plant response rating, Crabgrass, Large [7, 19] | Plant response rating, Crabgrass, Large [7, 20] | Plant response rating, Crabgrass, Large [7, 21] | Plant response rating, Foxtail, Giant [8, 19] | Plant response rating, Foxtail, Giant [8, 20] | Plant response rating, Foxtail, Giant [8, 21]
5: Plant response rating, Galium [5, 18]
80: Plant response rating, Galium [5, 16] | Plant response rating, Galium [5, 17] | Plant response rating, Galium [5, 19] | Plant response rating, Crabgrass, Large [7, 17]
40: Wheat plant response rating ([2]; Postemergence, 500 g ai/ha) | Plant response rating, Ryegrass, Italian [4, 17] | Plant response rating, Crabgrass, Large [7, 14] | Plant response rating, Foxtail, Giant [8, 16]
70: Plant response rating, Galium [5, 15] | Plant response rating, Lambsquarters [9, 19] | Plant response rating, Morningglory [10, 17]
50: Plant response rating, Wheat [2, 13]
10: Plant response rating, Wheat [2, 12] | Plant response rating, Corn [6, 20]
60: Plant response rating, Ryegrass, Italian [4, 19] | Plant response rating, Galium [5, 14] | Plant response rating, Corn [6, 17] | Plant response rating, Lambsquarters [9, 18] | Plant response rating, Morningglory [10, 15] | Plant response rating, Morningglory [10, 16]
75: Plant response rating, Foxtail, Giant [8, 17]
25: Plant response rating, Ryegrass, Italian [4, 14] | Plant response rating, Corn [6, 15]
85: Plant response rating, Galium [5, 20] | Plant response rating, Lambsquarters [9, 20]
45: Plant response rating, Crabgrass, Large [7, 15]
98: Plant response rating, Lambsquarters [9, 17]
65: Plant response rating, Barnyardgrass (0 to 100 scale, 0 is no effect, 100 is complete control) [3]
35: Plant response rating, Ryegrass, Italian [4, 18] | Plant response rating, Morningglory [10, 20]
0: Plant response rating, Corn [6, 18] | Plant response rating, Corn [6, 19]
15: Plant response rating, Foxtail, Giant [8, 14] | Plant response rating, Morningglory [10, 18] | Plant response rating, Morningglory [10, 19]
